Test results taken from PubChem BioAssay (NCI).
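These data come from cells grown in 96-well plates and exposed to compound for 48 hours at five concentrations. Here, GI50 denotes the concentration required for 50% inhibition of growth. TGI marks complete inhibition of growth.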

What was measured:
Experiment in all cases: inhibition of tumour cell growth, NCI panel, 48 h
OVCAR-8 ovarian = system: OVCAR-8 ovarian
MCF7 breast = system: MCF7 breast
M14 melanoma = system: M14 melanoma
SK-MEL-28 melanoma = system: SK-MEL-28 melanoma
SNB-75 CNS = system: SNB-75 CNS
HT29 colon = system: HT29 colon
U251 CNS = system: U251 CNS
MOLT-4 leukemia = system: MOLT-4 leukemia
SNB-19 CNS = system: SNB-19 CNS
MDA-MB-435 = system: MDA-MB-435
SF-268 CNS = system: SF-268 CNS
OVCAR-3 ovarian = system: OVCAR-3 ovarian
NCI-H460 lung = system: NCI-H460 lung
SR leukemia = system: SR leukemia
786-0 renal = system: 786-0 renal
NCI-H522 lung = system: NCI-H522 lung
SK-MEL-2 melanoma = system: SK-MEL-2 melanoma
SK-OV-3 ovarian = system: SK-OV-3 ovarian
NCI/ADR-RES ovarian = system: NCI/ADR-RES ovarian
HCC-2998 colon = system: HCC-2998 colon
RPMI-8226 leukemia = system: RPMI-8226 leukemia
K-562 leukemia = system: K-562 leukemia
UACC-62 melanoma = system: UACC-62 melanoma
NCI-H23 lung = system: NCI-H23 lung
COLO 205 colon = system: COLO 205 colon
A549 NSCLC = system: A549 NSCLC
HL-60(TB) leukemia = system: HL-60(TB) leukemia
LOX IMVI melanoma = system: LOX IMVI melanoma
OVCAR-5 ovarian = system: OVCAR-5 ovarian

## COc1ccc2c(c1)N(CCO)C1=C(C(=O)OC1)C2c1cccc(F)c1 (configuration not stated)
OVCAR-8 ovarian
  GI50: 1240 nM
  TGI: > 50000 nM
MCF7 breast
  GI50: 202 nM
  TGI: > 50000 nM
M14 melanoma
  GI50: 285 nM
  TGI: > 50000 nM
SK-MEL-28 melanoma
  GI50: 5590 nM
  TGI: > 50000 nM
SNB-75 CNS
  GI50: 186 nM
  TGI: 13600 nM
HT29 colon
  GI50: 230 nM
  TGI: > 19800 nM
U251 CNS
  GI50: 650 nM
  TGI: > 50000 nM
MOLT-4 leukemia
  GI50: 538 nM
  TGI: > 50000 nM
SNB-19 CNS
  GI50: 288 nM
  TGI: > 50000 nM
MDA-MB-435
  GI50: 112 nM
  TGI: 348 nM
SF-268 CNS
  GI50: 764 nM
  TGI: > 50000 nM
OVCAR-3 ovarian
  GI50: 188 nM
NCI-H460 lung
  GI50: 227 nM
  TGI: > 50000 nM
SR leukemia
  GI50: 195 nM
  TGI: > 50000 nM
786-0 renal
  GI50: 644 nM
  TGI: > 50000 nM
NCI-H522 lung
  GI50: 118 nM
  TGI: 1080 nM
SK-MEL-2 melanoma
  GI50: 801 nM
  TGI: > 36200 nM
SK-OV-3 ovarian
  GI50: 1260 nM
  TGI: > 50000 nM
NCI/ADR-RES ovarian
  GI50: 297 nM
  TGI: > 21400 nM
HCC-2998 colon
  GI50: 1070 nM
  TGI: > 50000 nM
RPMI-8226 leukemia
  GI50: 629 nM
  TGI: > 50000 nM
K-562 leukemia
  GI50: 199 nM
  TGI: > 50000 nM
UACC-62 melanoma
  GI50: 203 nM
  TGI: > 50000 nM
NCI-H23 lung
  GI50: 1800 nM
  TGI: > 50000 nM
COLO 205 colon
  GI50: 526 nM
  TGI: 3250 nM
A549 NSCLC
  GI50: 746 nM
  TGI: > 50000 nM
HL-60(TB) leukemia
  GI50: 161 nM
  TGI: 781 nM
LOX IMVI melanoma
  GI50: 454 nM
  TGI: > 50000 nM
OVCAR-5 ovarian
  GI50: 2070 nM
  TGI: > 50000 nM
